Test results from patent US20200017496A1 (priority 2017, published 2020).
Like-named read-outs stand apart in the source and are kept apart here.

How the values were obtained:
Test in all cases: MIC of compounds alone and combined with antibacterials, broth microdilution (CLSI)
Assay type in all cases: cell-based
[1] = system: Enterobacter cloacae (ECL) isolates; conditions: for MIC: Enterobacter cloacae
Procedure, shortened: (§1)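 Inoculum 5·10^5 CFU/mL (final), log phase, ca-MHB; 16-20 h, 35° C, ambient air. MIC = lowest conc. with no visible growth; ATB MIC read at each compound level.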

[2] = system: Salmonella typhimurium (STY) isolates; conditions: for MIC: Salmonella enterica, TYPHIMURIUM, strain STY S3371 (OXA-1)
Procedure, shortened: as §1

[3] = system: Klebsiella oxytoca (KOX) isolates; conditions: for MIC ATB in combination: AF1 @ 4 μg/mL; for MIC: Klebsiella oxytoca
Procedure, shortened: as §1

With `CC1(C)S[C@@H]2[C@H](NC(=O)[C@H](N)c3ccc(O)cc3)C(=O)N2[C@H]1C(=O)O` [AMX, Amoxicillin] the “MIC ATB in combination” value ([1]; ECL UFR85, AF1 @ 4 μg/mL) was 256 µg/mL, the “MIC ATB in combination” value ([1]; ECL UFR194, AF1 @ 4 μg/mL) was 256 µg/mL and the “MIC ATB in combination” value ([1]; ECL UFR200, AF1 @ 4 μg/mL) was 256 µg/mL. It also gave an MIC ([1]; ATB alone, strain ECL UFR197 (TEM-1, CTX-M-15, OXA-1, OXA-48)) of over 128 µg/mL, an MIC ([1]; ATB alone, strain ECL UFR198 (TEM-1, SHV-12, CTX-M-15, DHA-1, OXA-1, OXA-48)) of over 128 µg/mL and an MIC ([1]; ATB combined with CLA @ 4 μg/ml, strain ECL UFR197 (TEM-1, CTX-M-15, OXA-1, OXA-48)) of over 128 µg/mL. The MIC ([1]; ATB combined with CLA @ 4 μg/ml, strain ECL UFR198 (TEM-1, SHV-12, CTX-M-15, DHA-1, OXA-1, OXA-48)) was over 128 µg/mL, the MIC ([1]; strain ECL 2185D (OXA-163), ATB alone) was over 256 µg/mL and the MIC ([1]; strain ECL 2185D (OXA-163), CLA @ 4 μg/ml+ ATB) was over 128 µg/mL. It also gave an MIC ([1]; strain ECL 190310 (AmpC), ATB alone) of over 256 µg/mL, an MIC ([1]; strain ECL 190310 (AmpC), CLA @ 4 μg/ml+ ATB) of over 128 µg/mL and an MIC ([1]; strain ECL 190408 (TEM-1, CTX-M-15, OXA-1), ATB alone) of over 256 µg/mL. It also gave an MIC ([1]; strain ECL 190408 (TEM-1, CTX-M-15, OXA-1), CLA @ 4 μg/ml+ ATB) of over 128 µg/mL, an MIC ([1]; strain ECL 200138 (AmpC), ATB alone) of over 256 µg/mL and an MIC ([1]; strain ECL 200138 (AmpC), CLA @ 4 μg/ml+ ATB) of over 128 µg/mL. It also gave an MIC ([1]; strain ECL 200322 (TEM-1, CTX-M-15, OXA-1), ATB alone) of over 256 µg/mL, an MIC ([1]; strain ECL 200322 (TEM-1, CTX-M-15, OXA-1), CLA @ 4 μg/ml+ ATB) of over 128 µg/mL and an MIC ([1]; strain ECL 260033 (AmpC), ATB alone) of over 256 µg/mL. For the same compound, the MIC ([1]; strain ECL 260033 (AmpC), CLA @ 4 μg/ml+ ATB) was over 128 µg/mL, the MIC ([1]; strain ECL 260253 (TEM-1, KPC-3), ATB alone) was over 256 µg/mL and the MIC ([1]; strain ECL 260253 (TEM-1, KPC-3), CLA @ 4 μg/ml+ ATB) was over 128 µg/mL. The MIC ([1]; strain ECL 260323 (AmpC), ATB alone) was over 256 µg/mL, the MIC ([1]; strain ECL 260323 (AmpC), CLA @ 4 μg/ml+ ATB) was over 128 µg/mL and the MIC ([1]; strain ECL 260508 (TEM-1, CTX-M-15), ATB alone) was over 256 µg/mL. The MIC ([1]; strain ECL 260508 (TEM-1, CTX-M-15), CLA @ 4 μg/ml+ ATB) was over 128 µg/mL, the MIC ([1]; strain ECL NEM146383 (AmpC), ATB alone) was over 256 µg/mL and the MIC ([1]; strain ECL NEM146383 (AmpC), CLA @ 4 μg/ml+ ATB) was over 128 µg/mL. For the same compound, the MIC ([1]; strain ECL P99 (AmpC), ATB alone, read-out: MIC) was over 1020 µg/mL, the MIC ([1]; strain ECL P99 (AmpC), CLA @ 4 μg/ml+ ATB) was over 512 µg/mL and the MIC ([1]; strain ECL UFR12 (CTX-M-9, OXA-48), ATB alone) was over 256 µg/mL. For the same compound, the MIC ([1]; strain ECL UFR12 (CTX-M-9, OXA-48), CLA @ 4 μg/ml+ ATB) was over 128 µg/mL, the MIC ([1]; strain ECL UFR13 (TEM-1, SHV-12, CTX-M-9, OXA-48), ATB alone) was over 256 µg/mL and the MIC ([1]; strain ECL UFR13 (TEM-1, SHV-12, CTX-M-9, OXA-48), CLA @ 4 μg/ml+ ATB) was over 128 µg/mL. The MIC ([1]; strain ECL UFR14 (TEM-1, SHV-12, CTX-M-15, DHA-1, OXA-1, OXA-48), ATB alone) was over 256 µg/mL, the MIC ([1]; strain ECL UFR14 (TEM-1, SHV-12, CTX-M-15, DHA-1, OXA-1, OXA-48), CLA @ 4 μg/ml+ ATB) was over 128 µg/mL and the MIC ([1]; strain ECL UFR60 (TEM-1, CTX-M-15, KPC-2), ATB alone) was over 256 µg/mL. It also gave an MIC ([1]; strain ECL UFR60 (TEM-1, CTX-M-15, KPC-2), CLA @ 4 μg/ml+ ATB) of over 128 µg/mL, an MIC ([1]; strain ECL UFR70 (TEM-1, CTX-M-15, CMY-2, OXA-1, Porin loss), ATB alone) of over 256 µg/mL and an MIC ([1]; strain ECL UFR70 (TEM-1, CTX-M-15, CMY-2, OXA-1, Porin loss), CLA @ 4 μg/ml+ ATB) of over 128 µg/mL. The MIC ([1]; strain ECL UFR84 (TEM-1, AmpC, OXA-1), ATB alone) was over 256 µg/mL, the MIC ([1]; strain ECL UFR84 (TEM-1, AmpC, OXA-1), CLA @ 4 μg/ml+ ATB) was over 128 µg/mL and the MIC ([1]; strain ECL UFR85 (TEM-1, CTX-M-15, AmpC), ATB alone) was over 256 µg/mL. It also gave an MIC ([1]; strain ECL UFR85 (TEM-1, CTX-M-15, AmpC), CLA @ 4 μg/ml+ ATB) of over 128 µg/mL, an MIC ([1]; strain ECL UFR194 (OXA-48), ATB alone) of over 128 µg/mL and an MIC ([1]; strain ECL UFR194 (OXA-48), CLA @ 4 μg/ml+ ATB) of over 128 µg/mL. The MIC ([1]; strain ECL UFR195 (TEM-1, CTX-M-15, OXA-1, OXA-48), ATB alone) was over 128 µg/mL, the MIC ([1]; strain ECL UFR195 (TEM-1, CTX-M-15, OXA-1, OXA-48), CLA @ 4 μg/ml+ ATB) was over 128 µg/mL and the MIC ([1]; strain ECL UFR196 (TEM-1, CTX-M-15, OXA-1, OXA-48), ATB alone) was over 128 µg/mL. It also gave an MIC ([1]; strain ECL UFR196 (TEM-1, CTX-M-15, OXA-1, OXA-48), CLA @ 4 μg/ml+ ATB) of over 128 µg/mL, an MIC ([1]; strain ECL UFR200 (TEM-1, SHV-12, KPC-2), ATB alone) of over 128 µg/mL and an MIC ([1]; strain ECL UFR200 (TEM-1, SHV-12, KPC-2), CLA @ 4 μg/ml+ ATB) of over 128 µg/mL. The “MIC ATB in combination” value ([1]; strain ECL UFR195, antibacterial combined with AF1 @ 4 μg/mL) was 256 µg/mL, the “MIC ATB in combination” value ([1]; strain ECL UFR197, antibacterial combined with AF1 @ 4 μg/mL) was 256 µg/mL and the “MIC ATB in combination” value [2] was 128 µg/mL. The MIC ([2]; ATB alone) was over 256 µg/mL, the MIC ([2]; CLA @ 4 μg/ml+ ATB) was 128 µg/mL and the “MIC ATB in combination” value ([3]; KOX UFR21) was 256 µg/mL. For the same compound, the “MIC ATB in combination” value ([3]; KOX UFR173) was 4 µg/mL, the “MIC ATB in combination” value ([3]; KOX UFR223) was 16 µg/mL and the “MIC ATB in combination” value ([3]; KOX UFR224) was 64 µg/mL. For the same compound, the MIC [3] was over 128 µg/mL, the MIC ([3]; strain KOX UFR21 (TEM-1, CTX-M-15, OXA-48), ATB alone) was over 256 µg/mL and the MIC ([3]; strain KOX UFR21 (TEM-1, CTX-M-15, OXA-48), CLA @ 4 μg/ml+ ATB) was over 128 µg/mL. The MIC ([3]; strain KOX UFR223 (SHV-11, OXA-48), ATB alone) was over 128 µg/mL, the MIC ([3]; strain KOX UFR223 (SHV-11, OXA-48), CLA @ 4 μg/ml+ ATB) was over 128 µg/mL and the MIC ([3]; strain KOX UFR224 (CTX-M-15, OXA-48), ATB alone) was over 128 µg/mL. It also gave an MIC ([3]; strain KOX UFR224 (CTX-M-15, OXA-48), CLA @ 4 μg/ml+ ATB) of over 128 µg/mL.
